Patent US11896680B2, “Detection method” (Mie University, priority 2017, dated 2024)

Legend:
[1] = test system: large intestine of a mouse (normal mucosal tissue); assay: vital staining of normal mouse large intestine, imaged with confocal or multiphoton laser microscope
Protocol: (§1) 100 mg of curcumin (Tokyo Kasei, cat. #C2302, purity 97.0%) was suspended in 5 mL of ethanol, and further diluted 10-fold with ethanol. It was mixed with the same amount of glycerin, and further diluted 10-fold with glycerin. The mixture was mixed with the same amount of purified water to obtain a staining solution of curcumin. As for Red #106, its staining solution is obtained by dissolving the powder in saline to the concentration of 1 mg/mL.
(§2) C57BL/6N mice purchased from Japan SLC, Inc. were used in the tests. All tests were performed on male, 8-week-old mice weighing 20˜25 grams.
(§3) A multiphoton laser microscope of FVMPE-RS (Olympus) was used with the irradiation wavelength of 800 nm. Laser irradiation was performed at 5.8˜48.2% of its full power output. A confocal laser microscope of FV1000 (Olympus) was used with the irradiation wavelength of 488 nm and 594 nm, wherein the laser irradiation at 488 nm was performed at […] of its full power output, and the laser irradiation at 594 nm was performed at 13˜13.5% of its full power output. The direction of irradiation and staining from serosal or luminal side are described in the figures.

[2] = test system: large intestine (cancer tumor site) of a colon cancer mouse; assay: vital staining of cancer tumor site in large intestine of colon cancer mouse, imaged with laser microscope; type: in vivo
Protocol: as §1, §2
Model mice with colon cancer were prepared by intraperitoneally administering 10 mg/kg of azoxymethane (AOM) dissolved in saline 4 times at weekly intervals to C57BL/6N mice.
as §3

[3] = five-layer structure of normal large intestine
[4] = stained from serosa side, confocal laser microscope, FIG. 5c
[5] = stained and photographed from luminal side, FIG. 11A and 11B

| SMILES | staining of network of capillaries surrounding the glandular structures of epithelial and glandular layers (1) [1, 3] | staining of the smooth muscle in muscle layer (4) [1, 3] | staining of the smooth muscle in muscularis mucosae (2) [1, 3] | staining of the wall of a thick blood vessel inside muscle layer [1, 3] | staining of Auerbach's plexus inside muscle layer [1, 3] | staining of glandular cells in epithelial and glandular layers (1) [1, 3] | staining of nerve fibers of Auerbach's plexus [1, 4] | staining of perikaryon of Auerbach's plexus [1, 4] | staining of cytoplasm of invaded cancer cells inside smooth muscle layer relative to surrounding tissues ([2]; stained and observed from serosal side, confocal laser microscope, FIG. 10A) | staining of cytoplasm of cancer cells [2, 5] | staining of nuclei of cancer cells [2, 5] |
| --- | --- | --- | --- | --- | --- | --- | --- | --- | --- | --- | --- |
| CCN(CC)c1ccc2c(-c3ccc(S(=O)(=O)[O-])cc3S(=O)(=O)[O-])c3ccc(=[N+](CC)CC)cc-3oc2c1.[Na+] [Red #106] | severely positive | mildly positive | mildly positive | severely positive |  |  |  |  |  |  |  |
| COc1cc(/C=C/C(=O)CC(=O)/C=C/c2ccc(O)c(OC)c2)ccc1O [curcumin] |  | mildly positive | severely positive |  | severely positive | severely positive | lightly | darkly | darker than surrounding tissues | stained severely | stained negatively |
